According to ChEMBL document CHEMBL1201862, “PubChem BioAssay data set” (2004):
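Interpolation was linear, between the two tested concentrations surrounding the appropriate level; five concentrations were tested over 48 hours in 96-well plates. Here, GI50 denotes the concentration required for 50% inhibition of growth.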 Calls of active or inactive are those of the source. No stated cut-off is given here; in the data, active = GI50 up to about 1.1 µM and inactive = higher.

Assays:
Assay in all cases: NCI tumour cell line growth inhibition, 48 h
786-0 = tested on: 786-0
A498 = tested on: A498
A549 = tested on: A549
ACHN = tested on: ACHN
BT-549 = tested on: BT-549
CAKI-1 = tested on: CAKI-1
CCRF-CEM = tested on: CCRF-CEM
DU-145 = tested on: DU-145
EKVX = tested on: EKVX
HCC 2998 = tested on: HCC 2998
HCT-116 = tested on: HCT-116
HCT-15 = tested on: HCT-15
HL-60 = tested on: HL-60
HOP-62 = tested on: HOP-62
HOP-92 = tested on: HOP-92
HT-29 = tested on: HT-29
Hs-578T = tested on: Hs-578T
IGROV-1 = tested on: IGROV-1
K562 = tested on: K562
KM12 = tested on: KM12
LOX IMVI = tested on: LOX IMVI
M14 = tested on: M14
MCF7 = tested on: MCF7
MDA-MB-231 = tested on: MDA-MB-231
MDA-MB-435 = tested on: MDA-MB-435
MDA-N = tested on: MDA-N
Malme-3M = tested on: Malme-3M
NCI-H23 = tested on: NCI-H23
NCI-H460 = tested on: NCI-H460
NCI-H522 = tested on: NCI-H522
NCI/ADR-RES = tested on: NCI/ADR-RES
OVCAR-3 = tested on: OVCAR-3
OVCAR-4 = tested on: OVCAR-4
OVCAR-5 = tested on: OVCAR-5
OVCAR-8 = tested on: OVCAR-8
RPMI-8226 = tested on: RPMI-8226
RXF 393 = tested on: RXF 393
SF-268 = tested on: SF-268
SF-295 = tested on: SF-295
SK-MEL-28 = tested on: SK-MEL-28
SK-MEL-2 = tested on: SK-MEL-2
SK-MEL-5 = tested on: SK-MEL-5
SK-OV-3 = tested on: SK-OV-3
SN12C = tested on: SN12C
SNB-19 = tested on: SNB-19
SNB-75 = tested on: SNB-75
SR = tested on: SR
SW-620 = tested on: SW-620
T47D = tested on: T47D
TK-10 = tested on: TK-10
U-251 = tested on: U-251
UACC-257 = tested on: UACC-257
UACC-62 = tested on: UACC-62
UO-31 = tested on: UO-31
MOLT-4 = tested on: MOLT-4
NCI-H226 = tested on: NCI-H226
PC-3 = tested on: PC-3
SF-539 = tested on: SF-539
COLO 205 = tested on: COLO 205

In the case of `O=P(O)(O)OC1O[C@H](CO)[C@H](O)[C@H](O)[C@H]1O` (stereo partly specified), the GI50 (786-0) is reported as > 100 µM (inactive), the GI50 (A498) is reported as > 100 µM (inactive) and the GI50 (A549) is reported as > 100 µM (inactive). For the same compound, the GI50 (ACHN) was > 100 µM (inactive), the GI50 (BT-549) was > 100 µM (inactive) and the GI50 (CAKI-1) was > 100 µM (inactive). The GI50 (CCRF-CEM) was > 100 µM (inactive), the GI50 (DU-145) was > 100 µM (inactive) and the GI50 (EKVX) was > 100 µM (inactive). The GI50 (HCC 2998) was > 100 µM (inactive), the GI50 (HCT-116) was > 100 µM (inactive) and the GI50 (HCT-15) was greater than 100 µM. For the same compound, the GI50 (HL-60) was > 100 µM (inactive), the GI50 (HOP-62) was > 100 µM (inactive) and the GI50 (HOP-92) was > 100 µM (inactive). For the same compound, the GI50 (HT-29) was > 100 µM (inactive), the GI50 (Hs-578T) was > 100 µM (inactive) and the GI50 (IGROV-1) was > 100 µM (inactive). The GI50 (K562) was > 100 µM (inactive), the GI50 (KM12) was > 100 µM (inactive) and the GI50 (LOX IMVI) was > 100 µM (inactive). For the same compound, the GI50 (M14) was > 100 µM (inactive), the GI50 (MCF7) was > 100 µM (inactive) and the GI50 (MDA-MB-231) was > 100 µM (inactive). For the same compound, the GI50 (MDA-MB-435) was > 100 µM (inactive), the GI50 (MDA-N) was > 100 µM (inactive) and the GI50 (Malme-3M) was > 100 µM (inactive). The GI50 (NCI-H23) was > 100 µM (inactive), the GI50 (NCI-H460) was > 100 µM (inactive) and the GI50 (NCI-H522) was > 100 µM (inactive). The GI50 (NCI/ADR-RES) was > 100 µM (inactive), the GI50 (OVCAR-3) was > 100 µM (inactive) and the GI50 (OVCAR-4) was > 100 µM (inactive). The GI50 (OVCAR-5) was > 100 µM (inactive), the GI50 (OVCAR-8) was > 100 µM (inactive) and the GI50 (RPMI-8226) was > 100 µM (inactive). The GI50 (RXF 393) was > 100 µM (inactive), the GI50 (SF-268) was > 100 µM (inactive) and the GI50 (SF-295) was > 100 µM (inactive). For the same compound, the GI50 (SK-MEL-28) was > 100 µM (inactive), the GI50 (SK-MEL-2) was > 100 µM (inactive) and the GI50 (SK-MEL-5) was > 100 µM (inactive). The GI50 (SK-OV-3) was > 100 µM (inactive), the GI50 (SN12C) was > 100 µM (inactive) and the GI50 (SNB-19) was > 100 µM (inactive). The GI50 (SNB-75) was > 100 µM (inactive), the GI50 (SR) was > 100 µM (inactive) and the GI50 (SW-620) was > 100 µM (inactive). For the same compound, the GI50 (T47D) was > 100 µM (inactive), the GI50 (TK-10) was > 100 µM (inactive) and the GI50 (U-251) was > 100 µM (inactive). For the same compound, the GI50 (UACC-257) was > 100 µM (inactive), the GI50 (UACC-62) was > 100 µM (inactive) and the GI50 (UO-31) was > 100 µM (inactive).
`CCOc1ccc2nc(NC(=O)C(=O)C(c3cnc4ccccc4n3)[N+](=O)[O-])sc2c1` (stereo unspecified) was tested, and the GI50 (786-0) was > 100 µM (inactive), the GI50 (A498) was > 100 µM (inactive) and the GI50 (A549) was > 100 µM (inactive). The GI50 (ACHN) was 43.8 µM (inactive), the GI50 (BT-549) was > 100 µM (inactive) and the GI50 (CAKI-1) was > 100 µM (inactive). The GI50 (CCRF-CEM) was 44.8 µM (inactive), the GI50 (EKVX) was 96.8 µM (inactive) and the GI50 (HCC 2998) was > 100 µM (inactive). For the same compound, the GI50 (HCT-116) was > 100 µM (inactive), the GI50 (HCT-15) was greater than 100 µM and the GI50 (HL-60) was 56.2 µM (inactive). The GI50 (HOP-62) was > 100 µM (inactive), the GI50 (HOP-92) was > 100 µM (inactive) and the GI50 (HT-29) was > 100 µM (inactive). For the same compound, the GI50 (Hs-578T) was > 100 µM (inactive), the GI50 (IGROV-1) was 41.4 µM (inactive) and the GI50 (K562) was 98.2 µM (inactive). For the same compound, the GI50 (KM12) was > 100 µM (inactive), the GI50 (LOX IMVI) was 61 µM (inactive) and the GI50 (M14) was > 100 µM (inactive). For the same compound, the GI50 (MCF7) was > 100 µM (inactive), the GI50 (MDA-MB-231) was > 100 µM (inactive) and the GI50 (MDA-N) was > 100 µM (inactive). For the same compound, the GI50 (MOLT-4) was 53.1 µM (inactive), the GI50 (Malme-3M) was > 100 µM (inactive) and the GI50 (NCI-H226) was > 100 µM (inactive). For the same compound, the GI50 (NCI-H23) was 74.5 µM (inactive), the GI50 (NCI-H460) was > 100 µM (inactive) and the GI50 (NCI-H522) was 45.4 µM (inactive). The GI50 (NCI/ADR-RES) was > 100 µM (inactive), the GI50 (OVCAR-3) was > 100 µM (inactive) and the GI50 (OVCAR-4) was > 100 µM (inactive). For the same compound, the GI50 (OVCAR-5) was > 100 µM (inactive), the GI50 (OVCAR-8) was 53.5 µM (inactive) and the GI50 (PC-3) was > 100 µM (inactive). The GI50 (RPMI-8226) was 61.5 µM (inactive), the GI50 (RXF 393) was > 100 µM (inactive) and the GI50 (SF-268) was > 100 µM (inactive). For the same compound, the GI50 (SF-295) was > 100 µM (inactive), the GI50 (SF-539) was > 100 µM (inactive) and the GI50 (SK-MEL-2) was > 100 µM (inactive). For the same compound, the GI50 (SK-MEL-5) was > 100 µM (inactive), the GI50 (SK-OV-3) was > 100 µM (inactive) and the GI50 (SN12C) was > 100 µM (inactive). For the same compound, the GI50 (SNB-19) was 69.2 µM (inactive), the GI50 (SNB-75) was > 100 µM (inactive) and the GI50 (T47D) was > 100 µM (inactive). For the same compound, the GI50 (TK-10) was > 100 µM (inactive), the GI50 (UACC-257) was > 100 µM (inactive) and the GI50 (UACC-62) was > 100 µM (inactive). For the same compound, the GI50 (UO-31) was 77.3 µM (inactive).
In the case of `COC(=O)[C@@](NC(=O)OCc1ccccc1)([C@H](C)O)C(F)(F)F`, the GI50 (786-0) is reported as > 100 µM (inactive), the GI50 (A498) is reported as > 100 µM (inactive) and the GI50 (A549) is reported as > 100 µM (inactive). For the same compound, the GI50 (ACHN) was > 100 µM (inactive), the GI50 (BT-549) was > 100 µM (inactive) and the GI50 (CAKI-1) was > 100 µM (inactive). The GI50 (CCRF-CEM) was 57.4 µM (inactive), the GI50 (COLO 205) was > 100 µM (inactive) and the GI50 (DU-145) was > 100 µM (inactive). The GI50 (EKVX) was > 100 µM (inactive), the GI50 (HCC 2998) was > 100 µM (inactive) and the GI50 (HCT-116) was > 100 µM (inactive). The GI50 (HCT-15) was greater than 100 µM, the GI50 (HL-60) was > 100 µM (inactive) and the GI50 (HOP-62) was > 100 µM (inactive). The GI50 (HOP-92) was > 100 µM (inactive), the GI50 (HT-29) was > 100 µM (inactive) and the GI50 (Hs-578T) was > 100 µM (inactive). For the same compound, the GI50 (IGROV-1) was > 100 µM (inactive), the GI50 (K562) was > 100 µM (inactive) and the GI50 (KM12) was > 100 µM (inactive). The GI50 (LOX IMVI) was > 100 µM (inactive), the GI50 (M14) was > 100 µM (inactive) and the GI50 (MDA-MB-231) was > 100 µM (inactive). The GI50 (MDA-MB-435) was > 100 µM (inactive), the GI50 (MOLT-4) was > 100 µM (inactive) and the GI50 (Malme-3M) was > 100 µM (inactive). The GI50 (NCI-H226) was > 100 µM (inactive), the GI50 (NCI-H23) was > 100 µM (inactive) and the GI50 (NCI-H460) was > 100 µM (inactive). For the same compound, the GI50 (NCI-H522) was > 100 µM (inactive), the GI50 (NCI/ADR-RES) was > 100 µM (inactive) and the GI50 (OVCAR-3) was > 100 µM (inactive). The GI50 (OVCAR-4) was > 100 µM (inactive), the GI50 (OVCAR-5) was > 100 µM (inactive) and the GI50 (OVCAR-8) was > 100 µM (inactive). For the same compound, the GI50 (PC-3) was > 100 µM (inactive), the GI50 (RPMI-8226) was > 100 µM (inactive) and the GI50 (RXF 393) was 53.5 µM (inactive). For the same compound, the GI50 (SF-268) was > 100 µM (inactive), the GI50 (SF-295) was > 100 µM (inactive) and the GI50 (SK-MEL-28) was > 100 µM (inactive). For the same compound, the GI50 (SK-MEL-2) was > 100 µM (inactive), the GI50 (SK-MEL-5) was > 100 µM (inactive) and the GI50 (SK-OV-3) was > 100 µM (inactive). For the same compound, the GI50 (SNB-19) was > 100 µM (inactive), the GI50 (SNB-75) was > 100 µM (inactive) and the GI50 (SR) was 50.1 µM (inactive). For the same compound, the GI50 (SW-620) was > 100 µM (inactive), the GI50 (T47D) was > 100 µM (inactive) and the GI50 (TK-10) was > 100 µM (inactive). For the same compound, the GI50 (U-251) was > 100 µM (inactive), the GI50 (UACC-257) was > 100 µM (inactive) and the GI50 (UACC-62) was > 100 µM (inactive). For the same compound, the GI50 (UO-31) was > 100 µM (inactive).
